From patent US6476254B1, “Alkoxylated fatty alcohol dicarboxylic acid esters” (Croda Inc., priority 1998, dated 2002)

Tests used:
[1] = Pigment wetting: viscosity of ester/pigment slurry; type: physicochemical; conditions: for viscosity (pigment wetting): FIG. 1B, dye slurry, 65% ester, 35% pigment, after standing five minutes
Procedure: Pigment wetting properties are determined by preparing a dye slurry and measuring viscosity. For example, a slurry can be prepared using an alkoxylated fatty alcohol dicarboxylic acid ester of the present invention mixed with 35 percent mica or any dye. The viscosity of the slurry is determined after allowing the slurry to stand for five minutes. The lower the viscosity, the better the pigment wetting properties of the ester. Desirably, in accordance with the present invention, viscosity of the resulting dye slurry will be below about 20,000 cps, preferably between about 500 and 15,000 cps and most preferably between about 500 and 5,000 cps based on a 65% ester, 35% pigment mixture (measured in weight percent). Viscosity will vary if a different testing mixture is used.

[2] = Skin spread factor (product spread on forearm circle, 15 minutes, FD&C Blue No. 1 staining); type: in vivo; conditions: resulting area divided by initial area after fifteen minute spread; FIG. 1A
Procedure: The skin spread factor is determined by applying, for example, 5 microliters of a product to a 3.14 cm diameter circle on the volar surface of the forearm. The product is spread evenly within the circle and allowed to spread for a fifteen minute period. The test site and surrounding area of the forearm is then sprayed with a 1 percent solution of FD&C Blue No. 1. The area not stained by the blue dye indicates the area onto which the product spread. The skin spread factor is obtained by dividing the resulting area by the initial area. In accordance with the present invention, formulations have a skin spread factor of less than about 8, preferably less than about 5.

Row | Compound | viscosity (pigment wetting) [1] | skin spread factor [2] | viscosity ([1]; test mixture not stated at this place)
1 | Bis (PPG2, PEG10 Myristyl) adipate |  | 2.9 | 18,000 cps
2 | CCCCCCCC/C=C\CCCCCCCCCCCC(=O)OCCCCCCCCCCCCCCCCCCCCCCCC [LGE, Lignoceryl Erucate] | > 15,000 cps | relatively low | 
3 | Di-PPG-3 Myristyl Ether Adipate [DP3A] | about 1200 cps | about 3.8 | 

The remaining lines, values ahead:

Row | viscosity (pigment wetting) [1] | skin spread factor [2] | viscosity ([1]; test mixture not stated at this place) | Compound
4 | ~20,000 cps | very low |  | Pentaerythrityl Tetraisostearate [PTIS]
5 | under 1000 cps | very high |  | CCCCCCCCCCCCCOC(=O)C(C)(C)C [TDNP, Tridecyl Neopentanoate]
